# Results from US5614620A, “DNA binding proteins including androgen receptor” (Arch Development Corporation, priority 1993, dated 1997).
# Key:
# AR mRNA = AR mRNA level in ventral prostate of castrated rats (RNA dot hybridization and Northern blot); format: in vivo; settings: 5 mg/rat/day
# Protocol: (§1) Because rat ventral prostate is an androgen-sensitive organ and contains the greatest amount of AR and TR2 mRNA, the effect of androgen depletion and replacement on the mRNA levels was studied by RNA dot hybridization and Northern blot analysis. […] Urol., 10:123 (1972)], was injected into normal rats for from 2 to 6 days. TR2 mRNA levels were then measured by dot hybridization as described above.
# TR2 mRNA = TR2 mRNA level in rat ventral prostate (RNA dot hybridization and Northern blot); format: in vivo
# Protocol: as §1
# human androgen receptor = settings: Govindan, et al.; cited from earlier work
# ventral prostate = settings: castrated rats; Neri, et al.; cited from earlier work
# 79 kD hAR protein = molecular target: T1, 79 kD hAR protein (Homo sapiens, UniProt P10275); test: competition of non-radioactive steroids with [^3 H] R1881 binding to hAR made in reticulocyte lysate (hydroxylapatite-filter method)
# T1 construct: T7 transcript translated in rabbit reticulocyte lysate; untagged
# T1 sequence (P10275 191-920): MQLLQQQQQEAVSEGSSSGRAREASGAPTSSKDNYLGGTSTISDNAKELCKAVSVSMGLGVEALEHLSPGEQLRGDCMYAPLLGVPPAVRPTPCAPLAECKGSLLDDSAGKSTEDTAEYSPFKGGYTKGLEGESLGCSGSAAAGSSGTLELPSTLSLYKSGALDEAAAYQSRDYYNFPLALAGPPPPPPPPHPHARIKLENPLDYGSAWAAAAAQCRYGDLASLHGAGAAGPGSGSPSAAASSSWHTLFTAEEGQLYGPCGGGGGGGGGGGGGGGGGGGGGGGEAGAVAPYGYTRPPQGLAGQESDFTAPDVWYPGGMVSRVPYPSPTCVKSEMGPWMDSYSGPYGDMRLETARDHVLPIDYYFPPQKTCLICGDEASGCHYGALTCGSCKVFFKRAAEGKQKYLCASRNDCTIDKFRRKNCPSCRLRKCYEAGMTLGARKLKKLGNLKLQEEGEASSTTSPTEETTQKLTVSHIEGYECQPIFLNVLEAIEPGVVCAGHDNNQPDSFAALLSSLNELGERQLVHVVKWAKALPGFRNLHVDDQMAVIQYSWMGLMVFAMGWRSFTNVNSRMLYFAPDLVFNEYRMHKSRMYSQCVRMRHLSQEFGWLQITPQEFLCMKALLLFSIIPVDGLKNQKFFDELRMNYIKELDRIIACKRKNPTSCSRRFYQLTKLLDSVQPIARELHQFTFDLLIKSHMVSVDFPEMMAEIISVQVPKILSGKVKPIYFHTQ
# AR = settings: Liao, et al. (1973); cited from earlier work
# hAR in NIH 3T3 cells = settings: 6 of about 100 individual cell lines
# Text: The expression of cloned AR-genes was achieved as follows in a eukaryotic system. NIH 3T3 cells, contact-inhibited cells established from NIH Swiss mouse embryo, were co-transfected with hAR cDNA inserted into pBPVMTH vectors as described by Gorman, "DNA Cloning", 2:143-190 D. M. Glover, ed.; (Oxford, Washington, D.C. 1985). Transfected cells were cloned and grown in multiple-well cell culture plates. About 100 individual cell lines were isolated.
# [1] = molecular target: AR of rat ventral prostate; settings: read-out: binding constant reported previously, Schilling, et al.; cited from earlier work
structure (smiles),measurement,setting,value
"C[C@]12CCC(=O)C[C@@H]1CC[C@@H]1[C@@H]2CC[C@]2(C)[C@@H](O)CC[C@@H]12 [5α-dihydrotestosterone, 17β-hydroxy-5α-androstan-3-one]",AR mRNA level,AR mRNA,reduced the AR mRNA level to that of normal rats
same,TR2 mRNA level,"TR2 mRNA; castrated rats, injection, 5 mg/rat/day",reduced the TR2 mRNA to the levels of normal rats
"C[C@]12CCC(=O)C[C@@H]1CC[C@@H]1[C@@H]2CC[C@]2(C)[C@@H](O)CC[C@@H]12 [DHT, dihydrotestosterone]",binding of tritium-labelled DHT (in words),human androgen receptor,with high affinity and specificity
CC(C)C(=O)Nc1ccc([N+](=O)[O-])c(C(F)(F)F)c1 [Flutamide],TR2 mRNA level,"TR2 mRNA; normal rats, injected for from 2 to 6 days",increased TR2 mRNA levels
same,effect on 5α-dihydrotestosterone action on ventral prostate weights,ventral prostate,antagonizes the effects of 5α-dihydrotestosterone on the ventral prostate weights in castrated rats
C[C@]12CCC(=O)C=C1CC[C@@H]1[C@@H]2[C@@H](O)C[C@@]2(C)[C@H]1CC[C@]2(O)C(=O)CO [Hydrocortisone],competition with [^3 H] R1881 binding (in words),"79 kD hAR protein; 79 kD protein, reticulocyte lysate",did not compete well
same,remaining activity at 0.05 µM,79 kD hAR protein; read-out: [^3 H] R1881-bound (% of control),90%
"C[C@]1(O)CC[C@H]2[C@@H]3CCC4=CC(=O)CCC4=C3C=C[C@@]21C [R1881, 17α-methyl-17β-hydroxy-estra-4,9,11-trien-3-one]",[^3 H] R1881-bound (% of control),"79 kD hAR protein; reticulocyte lysate har, 0.05 µM",10 % of control
same,AR binding affinity (in words),AR,binds AR with high affinity
"C[C@]1(O)CC[C@H]2[C@@H]3CCC4=CC(=O)CCC4=C3C=C[C@@]21C [[^3 H] R1881, 17α[^3 H]-methyl-17β-hydroxy-estra-4,9,11-trien-3-one]",[^3 H] R1881-binding activity relative to cells transfected with pSV2 vector alone,hAR in NIH 3T3 cells,at least 4 fold
same,Kd,[1],0.65 nM
